Molecular target: AMP-activated protein kinase (AMPK) alpha-1/beta-1/gamma-1 (Homo sapiens, UniProt P54619+Q13131+Q9Y478)
Experiment: In Vitro pAMPK1 Kinase Activation Assay: Compound effect on AMPK enzyme activation was determined in a cell-free format with a 12-point concentration curve. The ADP-Glo detection system was used to determine phosphorylation of a SAMS peptide substrate. Recombinant AMPK α1/β1/γ1 complex was pre-activated by phosphorylation with CAMKK2 followed by incubated with compound for 15 minutes prior to the SAMS phosphorylation reaction. Activity curves and EC50 values were fitted by interpolation to an ATP:ADP standard curve as indicated by the ADP-Glo manufacturer using Prism software.
Format: protein-complex assay

AMP-activated protein kinase (AMPK) alpha-1/beta-1/gamma-1, sequence (P54619 whole entry): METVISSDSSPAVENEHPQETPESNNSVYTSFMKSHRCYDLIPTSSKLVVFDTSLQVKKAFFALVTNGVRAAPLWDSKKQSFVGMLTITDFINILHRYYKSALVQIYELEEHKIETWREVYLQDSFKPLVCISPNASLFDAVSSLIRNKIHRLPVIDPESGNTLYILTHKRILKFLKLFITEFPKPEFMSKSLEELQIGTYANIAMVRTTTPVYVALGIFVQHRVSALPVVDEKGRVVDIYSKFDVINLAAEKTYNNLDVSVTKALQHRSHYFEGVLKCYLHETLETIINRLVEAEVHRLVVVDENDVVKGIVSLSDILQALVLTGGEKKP
AMP-activated protein kinase (AMPK) alpha-1/beta-1/gamma-1, sequence (Q9Y478 whole entry): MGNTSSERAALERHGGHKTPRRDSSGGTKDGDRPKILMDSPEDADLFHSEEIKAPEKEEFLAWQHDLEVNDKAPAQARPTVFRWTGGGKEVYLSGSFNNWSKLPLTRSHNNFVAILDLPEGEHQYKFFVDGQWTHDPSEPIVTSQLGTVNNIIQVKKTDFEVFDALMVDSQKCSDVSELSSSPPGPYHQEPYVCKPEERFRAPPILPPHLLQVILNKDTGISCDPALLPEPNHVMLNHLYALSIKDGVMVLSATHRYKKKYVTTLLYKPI
AMP-activated protein kinase (AMPK) alpha-1/beta-1/gamma-1, sequence (Q13131 whole entry): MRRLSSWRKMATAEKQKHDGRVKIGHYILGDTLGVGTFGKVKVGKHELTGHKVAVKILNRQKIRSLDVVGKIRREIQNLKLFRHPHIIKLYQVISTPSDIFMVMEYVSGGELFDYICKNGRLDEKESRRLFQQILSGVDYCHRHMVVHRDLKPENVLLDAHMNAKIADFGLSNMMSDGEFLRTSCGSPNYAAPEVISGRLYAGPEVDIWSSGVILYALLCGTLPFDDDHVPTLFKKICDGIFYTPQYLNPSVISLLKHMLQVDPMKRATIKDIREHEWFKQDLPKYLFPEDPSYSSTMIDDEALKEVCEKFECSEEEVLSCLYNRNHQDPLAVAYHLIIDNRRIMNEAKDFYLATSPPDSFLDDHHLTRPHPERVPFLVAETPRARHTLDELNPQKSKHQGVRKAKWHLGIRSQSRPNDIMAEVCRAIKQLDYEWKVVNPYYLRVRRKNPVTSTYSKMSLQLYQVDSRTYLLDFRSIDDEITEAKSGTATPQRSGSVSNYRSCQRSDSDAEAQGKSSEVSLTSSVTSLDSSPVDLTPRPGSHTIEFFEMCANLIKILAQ

Row | EC50 | SMILES
1 | 1.08 nM | OCC(CO)NCc1ccc(-c2ccc(-c3cc4nc(O[C@@H]5CO[C@H]6[C@@H]5OC[C@H]6O)[nH]c4cc3Cl)cc2)cc1
2 | 0.76 nM | O=C(NCC[N+]12CCN(CC1)CC2)c1ccc(-c2ccc(-c3cc4nc(O[C@@H]5CO[C@H]6[C@@H]5OC[C@H]6O)[nH]c4cc3Cl)cc2)cc1
3 | 0.96 nM | O=C(NCCC[N+]12CCN(CC1)CC2)c1ccc(-c2ccc(-c3cc4nc(O[C@@H]5CO[C@H]6[C@@H]5OC[C@H]6O)[nH]c4cc3Cl)cc2)cc1
4 | 1.51 nM | O=S(=O)(NCCOCCO)c1ccc(-c2ccc(-c3cc4nc(O[C@@H]5CO[C@H]6[C@@H]5OC[C@H]6O)[nH]c4cc3Cl)cc2)cc1

— ChEMBL document CHEMBL5729261, “AMPK activators” (2022)
